Measured values taken from US11484522B2, “Composite formulation and use thereof for preparing drugs for the treatment of tumours” (TIANJIN MEDICAL UNIVERSITY GENERAL HOSPITAL, priority 2018, dated 2022).

Assays:
HOTAIR target genes [1] = experiment: qPCR RNA level of HOTAIR target genes in tumor cell lines; format: cell-based
Experimental: FIG. 2B: The variations in RNA level of a target gene 48 h after treating with 40 nM of 36806 in multiple tumor cell lines.
FIG. 4A: RNA levels change of target genes in glioma and breast cancer cell lines after treating with 40 uM of 36806 for 48 hours.
FIG. 4C: RNA levels change of target genes after treating with low-dose 36806 concentration gradient for 48 hours.
(§1) Therefore, 36806 is capable of inhibiting the binding of HOTAIR to EZH2 at low concentrations and interfering with the recruitment of PRC2 to target genes, to relieve the target genes from silent suppression of histone methylation, thereby altering the function of epigenetic regulation.

[2] = test system: binding of HOTAIR to the target genes; experiment: CHIRP experiments, binding of HOTAIR to target genes; settings: 40 nM
Excerpt: (§2) Therefore, the inhibiting effect of 36806 on HOTAIR-EZH2 is specific.

[3] = test system: H3K27me3 in the promoter region of the target genes; experiment: CHIP experiments, H3K27me3 and RNA polymerase II in promoter region of target genes; format: cell-based
Excerpt: FIG. 3F: Chromatin immunoprecipitation (CHIP) experiments verified that 36806 affected the recruitment of PRC2 by HOTAIR after hindering the binding of HOTAIR to EZH2, such that the level of H3K27me3 in the promoter region of the target genes was reduced and the target genes were transcriptionally activated.
FIG. 5A: The Site1 region before the transcription initiation of APC2 is a transcription promoter region of APC2 and a binding region of H3K27me3.
FIG. 5B: After the treatment with 36806, the binding of H3K27me3 in Site1 region was weakened, and the binding of RNA polymerase II was strengthened.
as §2
(§3) Among the three predicted H3K27me3 binding sites in the promoter region of the target gene adenomatous polyposis coli 2 (APC2), sitel is a significant binding region of H3K27me3 (FIG. 5A). After the treatment with 36806, the binding of H3K27me3 in sitel region was weakened, and the binding of RNA polymerase II was strengthened (FIGS. 5B and 5C). […] APC2 is a tumor suppressor gene that can participate in the degradation of beta-catenin by ubiquitination and can inhibit the WNT signal path. The increased expression of APC2 can boost the degradation of beta-catenin. The nucleus-cytoplasm distribution of beta-catenin of cells in the treated group was decreased compared with that of the DMSO group (FIGS. 5D-5F). In this way, the downstream transcription of beta-catenin is inhibited, the expression of downstream EMT-related gene of multiple tumor cell lines is inhibited, and the protein expression is reduced (FIGS. 5G). Therefore, the invasion of tumor cells is weakened (FIG. 5H). Therefore, 36806 can inhibits the WNT signal path, reverses tumor EMT, and reduces tumor invasion and metastasis by increasing the expression level of target gene APC2.

HOTAIR target genes [4] = experiment: Western blot of protein level of HOTAIR target genes; format: cell-based
Experimental: as §1
The combination index (CI) of 36806 and DZNEP was measured by CalcuSyn software. […] After the transfection of EZH2 interfering RNA, combined with 36806 treatment, the transcription level of HOTAIR's target genes was higher (FIG. 7C). […] When used in combination with low-dose 36806, the dosage of DZNEP can be reduced by ⅘ (FIG. 7D).

beta-catenin = experiment: Immunofluorescence and WB of beta-catenin and downstream EMT-related genes; format: cell-based
Excerpt: as §3

[5] = test system: glioblastoma, breast cancer, melanoma and gastric cancer cell lines; experiment: Transwell invasion assay; format: cell-based; settings: low-dose 40 nM (FIG. 5H)
Excerpt: as §3

[6] = test system: MDA-MB-231 breast cancer orthotopic model; experiment: Breast cancer orthotopic model established with MDA-MB-231 cell line; format: in vivo, mouse; settings: 50 mg/kg intraperitoneal
Excerpt: To further verify the anti-tumor effect of 36806 in vivo, a breast cancer orthotopic model is established by using a MDA-MB-231 cell line. […] The tumor volume measured on the body surface was reduced, and the size and wet weight of the tumor after dissection were reduced as well (FIGS. 6C-6D). […] HE staining confirmed the orthotopic lung metastasis of breast cancer (FIG. 6F). […] The above is consistent with the results of in-vitro experiments, that is, 36806 can inhibit the proliferation and metastasis of breast cancer orthotopic model.
A breast cancer orthotopic model is established by using a MDA-MB-231 cell line. 0.2 mg/kg 36806 in combination with 0.2 mg/kg DZNEP served as a combination group (the molar ratio was about 1:1), 0.2 mg/kg 36806 and 1 mg/kg DZNEP served as single-drug groups, and DMSO served as a control group.

[7] = test system: multiple tumor cell lines; settings: glioblastoma (U87-MG, LN229, primary N33), breast cancer (MDA-MB-231, MCF-7), HeLa, A375, SGC-7901, MGC-803, HepG2, PC9 cell lines
Experimental: Toxicity tests were then performed in multiple tumor cell lines.

[8] = 40 uM, 48 hours, glioma and breast cancer cell lines
[9] = low concentration gradient of 10 nM to 10 uM, 48 hours

## CC(C)NCC1Cc2cc(Cl)cc(Cl)c2O1 (stereo not drawn) [compound 36806, N-[(5,7-dichloro-2,3-dihydro-1-benzofuran-2-yl)methyl]propan-2-amine]
HOTAIR target genes [1]; [8]
  mRNA level of HOTAIR's target genes HOXD10, PCDH10, PCDHB5, NLK, APC2: increase
HOTAIR target genes [1]; RNA level, 40 nM, 48 h, multiple tumor cell lines
  expression level of HOTAIR target genes: up-regulate
HOTAIR target genes [1]; [9]
  RNA level of the target genes: increased
[2]
  binding of HOTAIR to the target genes (CHIRP): without affecting
[3]
  level of H3K27me3 in the promoter region of the target genes (CHIP): reduced
[3]; after treatment with 36806
  binding of H3K27me3 in site1 region of APC2 promoter: weakened
  binding of RNA polymerase II in site1 region of APC2 promoter: strengthened
HOTAIR target genes [4]; [8]
  protein level of HOTAIR's target genes HOXD10, PCDH10, PCDHB5, NLK, APC2: increase
HOTAIR target genes [4]; 40 uM, time gradient
  protein level of the target genes, time gradient: changed
HOTAIR target genes [4]; [9]
  protein level of the target genes: increased
beta-catenin; compared with DMSO group
  nucleus-cytoplasm distribution of beta-catenin: decreased
beta-catenin; multiple tumor cell lines
  protein expression of downstream EMT-related genes: reduced
[5]
  invasion of tumor cells: weakened
[6]
  expression of APC2 (immunofluorescence of tissue sections): increased
  expression of beta-catenin (immunofluorescence of tissue sections): decreased
  expression of target genes HOXD10 and PCDH10 (immunofluorescence of tissue sections): increased
[6]; 20 days and 40 days, vs DMSO group
  tumor size (bioluminescence imaging): significantly reduced
[6]; vs DMSO group
  size and wet weight of the tumor after dissection: reduced
  tumor volume measured on the body surface: reduced
[6]; organ imaging
  probability and scope of lung metastasis: smaller
[7]
  IC50 of 36806: low
